Measurements as given in patent US11731977B2, “SGC stimulators” (Cyclerion Therapeutics, Inc., priority 2016, dated 2023).

How the values were obtained:
[1] = test system: R6/2 mice hippocampal slices; test: Synaptic transmission and plasticity (LTP) in R6/2 mice hippocampal slices (Example 8); design: species or system mouse; conditions: R6/2 slices
Procedure: Improvements in synaptic transmission and plasticity, as measured by long term potentiation (LTP), is believed to indicate the potential of a compound to enhance memory. LTP is an electrophysiological phenomena that is commonly referred to as the a cellular phenomenon driving learning and memory.
Preparation of acute mice hippocampal slices. Experiments were carried out with 11 to 12 week-old R6/2 and WT mice provided by the Jackson Laboratory (USA). Hippocampal slices (350 μm thickness) were cut with a Macllwain tissue chopper in an ice-cold oxygenated sucrose solution (Saccharose 250, Glucose 11, NaHCO3 26, KCl 2, NaH2PO4 1.2, MgCl2 7, and CaCl2 0.5 in mM). The slices were incubated 1 hour at room temperature in ACSF of the following composition: Glucose 11, NaHCO3 25, NaCl 126, KCl 3.5, NaH2PO4 1.2, MgCl2 1.3, and CaCl2 2 in mM. Then, the slices were let to recover for at least 1 h.
Slice perfusion and temperature control. During the experiments, the slices were continuously perfused with the ACSF (bubbled with 95% O2-5% CO2) at the rate of 3 mL/min with a peristaltic pump (MEA chamber volume: ˜1 mL). Complete solution exchange in the MEA chamber was achieved 20 s after the switch of solutions. The perfusion liquid was continuously pre-heated at 37° C. just before reaching the MEA chamber with a heated-perfusion cannula (PH01, Multichannel Systems, Reutlingen, Germany). The temperature of the MEA chamber was maintained at 37±0.1° C. with a heating element located in the MEA amplifier headstage.
Input/Output (I/O)curve: from 100 to 800 μA, by 100 μA steps. The stimulus intensity was then set to a fixed value of 250 μA for the short- and long-term synaptic plasticity measurements.
Short-term plasticity properties: two pulses with a decreasing inter-stimuli interval (e.g. 300 ms, 200 ms, 100 ms, 50 ms, 25 ms) were applied. Compound application: fEPSP were recorded for 10 minutes in control conditions (to verify the baseline steadiness) followed by a 15-minute exposure to the compound (or 25 minutes in the presence of vehicle only for control slices). A second I/O protocol and paired-pulse protocol were applied, as described previously, in the continuous presence of the compound.
Long-Term Potentiation (LTP); Following a 10-minute control period (in the presence of the compound or vehicle for control slices), LTP was induced by a 10×TBS. Potentiation of synaptic transmission was then monitored for an additional 60-minute period (in the continuous presence of the compound or vehicle for control slices).

male Long Evans rats = test: Novel Object Recognition (NOR) test, MK-801-induced memory disruption (Example 10); type: in vivo, rat; conditions: for reversal of MK-801-induced memory deficits (Recognition Index): Galantamine 1 mg/kg, vs Vehicle/MK-801; for Recognition Index, Mean: 0 to 3 minute time bin
Source text: Objective. To assess the efficacy of compounds of the invention in reversing memory disruption induced by MK-801 using the Novel Object Recognition (NOR) test in male Long Evans rats. The NOR is a test of recognition learning and memory retrieval, which takes advantage of the spontaneous preference of rodents to investigate a novel object compared with a familiar one (Ennaceur and Delacour, 1988). […] The NOR test has been employed extensively to assess the potential cognitive-enhancing properties of novel test compounds. […] In the present study, a memory saving model was used to test the novel compound—MK-801 (Dizocilpine), an uncompetitive antagonist of the NMD A receptor was used to cause deficit of recognition memory. Compounds of the invention were evaluated through its efficacy in reversing memory impairment.
Animals. Adult male Long-Evans rats (275-299 gram at arrival from Envigo, Indianapolis, Ind.) were used in this study. Rats were placed in the experimental rooms and assigned unique identification numbers (tail marks). Rats were housed 2 per cage in polycarbonate cages with filter tops and acclimated for at least 7 days prior to testing. Animal room was maintained in a 12/12 h light/dark cycle (lights on at 07.00 EST), 22±1° C. and relative humidity at approximately 50%. Food and water were provided ad libitum. All animals were examined, handled and weighed prior to the study to assure adequate health and to minimize the non-specific stress associated with testing. Each animal was randomly assigned across the treatment groups. The experiments were conducted during the animal's light cycle phase.
MK-801 (0.1 mg/kg; Sigma-Aldrich) was dissolved in saline and injected IP 15 min prior to NOR training.
Galantamine (1 mg/kg; Tocris) was dissolved in saline and injected IP 15 minutes prior to training.
Compound I-1 (0.01, 0.1, and 1 mg/kg) was oral administrated 60 minutes prior to training. The dose volume was 4 ml/kg
Experimental procedures. NOR test was conducted in an open-field arena (40×40 cm) placed in a sound-attenuated room under dimmed lighting. Each rat was tested separately and care was taken to remove olfactory/taste cues by cleaning the arena and test objects with 70% alcohol between trials and rats. All training and testing trials were video-taped and scored by an observer blind to treatments.
On Days 1 and 2, rats were allowed to freely explore the arena (no objects inside) for a 5-minute habituation period. On Day 3 (training and testing day), rats were administered vehicle (saline), galantamine or compound solutions followed by MK-801 or vehicle (saline). After the pretreatment time, each animal was placed into the test arena in the presence of two identical objects. Each rat was placed in the arena facing the same direction at the same position, and the time spent actively exploring the objects during a 3-minute training period (T1) was recorded. The rat was returned to its home cage following training. NOR test (T2) was conducted 1 hours after T1. Each rat was placed back into the test arena in the presence of one familiar object and one novel object for 5 minutes, and the time spent exploring both objects was recorded during 0-1, 0-3 and 0-5 min time ranges. The presentation order and position of the objects (left/right) in T2 was randomized between rats to prevent bias from order or place preference.
Statistical Analysis. Data of NOR test (T2) were expressed as Recognition Index, which is defined as the ratio of the time spent exploring the novel object over the total time spent exploring both objects (Novel/(Familiar+Novel)×100%) during the test session. Data were analyzed by using one-way ANOVA followed by Fisher's LSD post hoc test on 0-1, 0-3 and 0-5 minute time range separately, with significance set at P<0.05. […] And then statistical outliers that fell above or below two standard deviations from the mean were removed from the final analysis. […]

rats = test: Inflammatory pain: kaolin, gait score (Example 13); type: in vivo, rat; conditions: Compound I-1 p.o. 10 mg/kg, 120 minutes after treatment
Procedure: Kaolin. Induction: In rats, unilateral arthritis was induced by an intra-articular injection of a 10% kaolin suspension into the knee joint of the right hind paw under gas anesthesia (3.5% isoflurane/3 L/min). Gait score: The gait score will be evaluated 3 h 30 min after kaolin administration by:
2: intermittent raising of the paw

SMILES: Fc1ccccc1Cc1nc(-c2nc(C(F)(F)F)n[nH]2)cn2ccnc12 [Compound I-1, 8-(2-fluorobenzyl)-6-(3-(trifluoromethyl)-1H-1,2,4-triazol-5-yl)imidazo[1,2-a]pyrazine]
- potentiation of the evoked-response amplitudes, stabilized level ([1]; 7 nM): around 25%
- rescue of LTP impairment ([1]; 7 nM): failed to significantly rescue
- fEPSP increase at endpoint after HFS (LTP) ([1]; 7 nM (R6/2 control 16±3%, WT 46±5%)): 26±6%
- effect on short-term plasticity properties (paired pulses, 25 ms to 300 ms ISI) ([1]; 7 nM, 46 nM or 308 nM, exception 308 nM at 50 ms ISI): None of the evaluated Compound I-1 concentrations (7 nM, 46 nM or 308 nM) displayed a significant effect
- effect on overall I/O characteristics ([1]; 7 nM, 46 nM, 308 nM): none of the 3 concentrations displayed a significant effect
- potentiation of the evoked-response amplitudes, stabilized level ([1]; 46 nM): around 45%
- fEPSP increase at endpoint after HFS (LTP) ([1]; 46 nM (R6/2 control 16±3%, WT 46±5%)): 44±12%
- rescue of LTP impairment ([1]; 46 nM and 308 nM): completely restored the LTP deficit
- potentiation of the evoked-response amplitudes, stabilized level ([1]; 308 nM): around 35%
- fEPSP increase at endpoint after HFS (LTP) ([1]; 308 nM (R6/2 control 16±3%, WT 46±5%)): 37±9%
- reversal of MK-801-induced memory deficits (Recognition Index) (male Long Evans rats; 0-1 min time range, Compound I-1 1 mg/kg): significantly reversed
- reversal of MK-801-induced memory deficits (Recognition Index) (male Long Evans rats; 0-3 minute time range, Compound I-1 0.1 and 1 mg/kg): significantly reversed
- reversal of MK-801-induced memory deficits (Recognition Index) (male Long Evans rats; 0-5 minute time range, Compound I-1 1 mg/kg): significantly reversed
- Recognition Index, Mean (male Long Evans rats; I-1 (0.1 mg/kg) oral + MK-801): 60.1%
- Recognition Index, Mean (male Long Evans rats; I-1 (1 mg/kg) oral + MK-801): 64.8%
- Recognition Index, Mean (male Long Evans rats; I-1 (10 mg/kg) oral + MK-801): 66.8%
- % of activity vs. vehicle (rats): 40%
